In the NIST ThermoML archive (doi:10.1016/j.jct.2017.03.006):

Test: xn = mol fraction of the nth substance listed
Details: Liquid, x1 = 1; for mass density: Vibrating tube method; for viscosity: Concentric cylinders viscometry

CCC(C)O (stereo unspecified) [butan-2-ol] + Cc1ccc(C)c(C)c1
Details | mass density [kg/m3] | viscosity [mPa·s]
273.15 K, 100 kPa | 822.3 | –
273.15 K, 1000 kPa | 822.7 | –
273.15 K, 2000 kPa | 823.4 | –
273.15 K, 5000 kPa | 825.4 | –
273.15 K, 10000 kPa | 828.7 | –
273.15 K, 15000 kPa | 831.8 | –
273.15 K, 20000 kPa | 834.7 | –
273.15 K, 30000 kPa | 840.4 | –
273.15 K, 40000 kPa | 845.7 | –
273.15 K, 50000 kPa | 850.7 | –
273.15 K, 60000 kPa | 855.4 | –
273.15 K, 70000 kPa | 859.9 | –
273.15 K, 80000 kPa | 864.3 | –
273.15 K, 90000 kPa | 868.4 | –
273.15 K, 100000 kPa | 872.4 | –
273.15 K, 110000 kPa | 876.3 | –
273.15 K, 120000 kPa | 879.9 | –
273.15 K, 130000 kPa | 883.5 | –
273.15 K, 140000 kPa | 887.2 | –
293.15 K, 100 kPa | 806.3 | 3.725
293.15 K, 1000 kPa | 807 | –
293.15 K, 2000 kPa | 807.8 | –
293.15 K, 5000 kPa | 810 | –
293.15 K, 10000 kPa | 813.6 | –
293.15 K, 15000 kPa | 817 | –
293.15 K, 20000 kPa | 820.2 | –
293.15 K, 30000 kPa | 826.5 | –
293.15 K, 40000 kPa | 832.3 | –
293.15 K, 50000 kPa | 837.7 | –
293.15 K, 60000 kPa | 842.8 | –
293.15 K, 70000 kPa | 847.7 | –
293.15 K, 80000 kPa | 852.3 | –
293.15 K, 90000 kPa | 856.7 | –
293.15 K, 100000 kPa | 860.9 | –
293.15 K, 110000 kPa | 865 | –
293.15 K, 120000 kPa | 868.8 | –
293.15 K, 130000 kPa | 872.7 | –
293.15 K, 140000 kPa | 876.3 | –
303.15 K, 100 kPa | – | 2.555
313.15 K, 100 kPa | 789.4 | 1.814
313.15 K, 1000 kPa | 790.1 | –
313.15 K, 2000 kPa | 791 | –
313.15 K, 5000 kPa | 793.5 | –
313.15 K, 10000 kPa | 797.5 | –
313.15 K, 15000 kPa | 801.4 | –
313.15 K, 20000 kPa | 805.1 | –
313.15 K, 30000 kPa | 811.9 | –
313.15 K, 40000 kPa | 818.3 | –
313.15 K, 50000 kPa | 824.1 | –
313.15 K, 60000 kPa | 829.6 | –
313.15 K, 70000 kPa | 835 | –
313.15 K, 80000 kPa | 839.9 | –
313.15 K, 90000 kPa | 844.6 | –
313.15 K, 100000 kPa | 849 | –
313.15 K, 110000 kPa | 853.3 | –
313.15 K, 120000 kPa | 857.5 | –
313.15 K, 130000 kPa | 861.5 | –
313.15 K, 140000 kPa | 865.4 | –
323.15 K, 100 kPa | – | 1.331
333.15 K, 100 kPa | 770.7 | 1.007
333.15 K, 1000 kPa | 771.6 | –
333.15 K, 2000 kPa | 772.6 | –
333.15 K, 5000 kPa | 775.5 | –
333.15 K, 10000 kPa | 780.1 | –
333.15 K, 15000 kPa | 784.4 | –
333.15 K, 20000 kPa | 788.6 | –
333.15 K, 30000 kPa | 796.2 | –
333.15 K, 40000 kPa | 803.2 | –
333.15 K, 50000 kPa | 809.6 | –
333.15 K, 60000 kPa | 815.7 | –
333.15 K, 70000 kPa | 821.4 | –
333.15 K, 80000 kPa | 826.7 | –
333.15 K, 90000 kPa | 831.8 | –
333.15 K, 100000 kPa | 836.6 | –
333.15 K, 110000 kPa | 841.2 | –
333.15 K, 120000 kPa | 845.5 | –
333.15 K, 130000 kPa | 849.8 | –
333.15 K, 140000 kPa | 853.9 | –
